# Measurements as given in patent EP4813986A1, “COMPOUND FOR REDUCING SERUM CONCENTRATION OF RBP4, AND USE” (Heronova Pharmaceuticals, LLC, priority 2023, dated 2025).
# Like-named read-outs stand apart in the source and are kept apart here.
# Key:
# [1] = molecular target: T1, RBP4 (Mus musculus, UniProt Q00724); assay: Plasma RBP4 content detection test (ELISA) after single oral dose; type: in vivo, ICR male mice; conditions: 5 mg/kg oral, maximum reduction within 5 to 24 hours vs 0-hour value
# T1 construct: from tissue; host or cells: plasma of ICR male mice
# Protocol: Test Method: ICR male mice aged 7 to 8 weeks were adaptively fed for 3 to 7 days and randomly divided into groups (4 mice per group), and fasted for 12 hours before the test. Orbital venous blood samples were collected and plasma was separated before administration on the test day (0-hour value as the initial content). Then, test compounds at a dose of 1 mg/kg or 5 mg/kg were orally administered (vehicle: 5% DMSO + 10% cyclodextrin), and vehicle (5% DMSO + 10% cyclodextrin) was orally administered as a control group. Orbital venous blood samples were collected and plasma was separated at 5, 8, 10, 12, and 24 hours after compound administration. The RBP4 content in plasma samples was detected using Mouse RBP4 (Retinol Binding Protein 4, Plasma) ELISA Kit (immunoway, KE1574), the reduction rate was calculated, and the maximum reduction rate within 5 to 24 hours was selected. Reduction rate of RBP4 content in mouse plasma at different sampling time points = (Initial RBP4 content - RBP4 content at sampling point) / Initial RBP4 content. Table 2 Plasma RBP4 Reduction Levels of Different Compounds
# [2] = in vitro; conditions: microsomes, pH 7.4
# Protocol: Phosphate buffer preparation: Weigh 7.098 g of disodium hydrogen phosphate, add 500 mL of pure water and dissolve by ultrasonication to obtain a disodium hydrogen phosphate solution. Weigh 3.400 g of potassium dihydrogen phosphate, add 250 mL of pure water and dissolve by ultrasonication to obtain a potassium dihydrogen phosphate solution. The disodium hydrogen phosphate solution and potassium dihydrogen phosphate solution were mixed and adjusted to pH 7.4+0.2.
# 10 mM NADPH preparation: Weigh an appropriate amount of NADPH (reduced coenzyme II), freshly prepare a 10 mM working solution with phosphate buffer, and the final concentration is 1 mM.
# Incubation system preparation: Prepare the suspension into the incubation plate according to Table 5, and pre-incubate in a 37°C water bath for 10 min. Table 5 Incubation System Preparation
# 2 µL of positive control or test compound working solution was added to 358 µL of the incubation system, mixed uniformly by vortexing, and all samples were prepared in duplicate. 40 µL of 10 mM NADPH was added to the system, mixed uniformly by low-speed vortexing, and the reaction timing was started. […] Centrifuge at 4700 rpm, 4°C for 15 minutes to precipitate proteins. Transfer 100 µL of the supernatant to the sample plate, add 100 µL of pure water and mix well for UPLC-MS/MS analysis. Table 6 Liver Microsome Stability Results
# [3] = Pharmacokinetic test, single oral dose, plasma LC-MS/MS; type: in vivo; conditions: mouse, single oral dose 10 mg/kg, male ICR mice; for half-life: read-out: half-life T1/2 (converted); for Cmax: read-out: peak concentration Cmax; for Tmax: read-out: peak time Tmax
# Protocol: Test Method: Three ICR mice (male) were used for each compound, with five groups in total. Mice were treated with a single oral dose of 10 mg/kg or 5 mg/kg. For each mouse, blood samples were collected at 0.25, 0.5, 1, 2, 4, and 8 hours after administration. Whole blood samples were placed in test tubes containing EDTA-K2, inverted up and down several times, and then centrifuged at 6000 rpm, 4°C for 15 minutes to obtain plasma. The concentration of the compound in plasma samples was determined using the LC-MS/MS method. Table 4 Pharmacokinetic Results of Different Compounds
Structure (SMILES),Maximum Plasma RBP4 Reduction Rate (5 mg/kg dose) [1],half-life at 1 µM ([2]; human),microsomal CLint at 1 µM ([2]; human),half-life at 1 µM ([2]; mouse),microsomal CLint at 1 µM ([2]; mouse),AUC(0-t) ([3]; in vivo),half-life ([3]; in vivo),Cmax ([3]; in vivo),Tmax ([3]; in vivo),AUC(0-t) [3],half-life [3],Cmax [3],Tmax [3]
CC(=O)N1CCc2c(C(=O)N3CC=C(c4ccc(F)c(F)c4C(F)(F)F)CC3)n[nH]c2C1 [Compound 1],41%,> 180 min,< 7.44 µL/min/mg,45.9 min,30.2 µL/min/mg,2460 ng·h/mL,167 min,1240 ng/mL,30 min,,,,
CC(=O)N1CCc2c(C(=O)N3CC=C(c4cccc(F)c4C(F)(F)F)CC3)n[nH]c2C1 [Compound 2],,94.4 min,14.7 µL/min/mg,18.8 min,73.6 µL/min/mg,,,,,,,,
COCCN1CCc2c(C(=O)N3CC=C(c4cccc(F)c4C(F)(F)F)CC3)n[nH]c2C1 [Compound 3],,18.7 min,74 µL/min/mg,26.3 min,52.7 µL/min/mg,,,,,119 ng·h/mL,442 min,159 ng/mL,30 min
COCC(=O)N1CCc2c(C(=O)N3CC=C(c4cccc(F)c4C(F)(F)F)CC3)n[nH]c2C1 [Compound 6],,63 min,22 µL/min/mg,9.46 min,146 µL/min/mg,,,,,383 ng·h/mL,230 min,285 ng/mL,30 min
COCC(=O)N1CCc2c(C(=O)N3CC=C(c4ccc(F)c(F)c4C(F)(F)F)CC3)n[nH]c2C1 [Compound 7],64%,103 min,13.4 µL/min/mg,15.6 min,89 µL/min/mg,,,,,1530 ng·h/mL,89.4 min,1050 ng/mL,30 min
[2H]C([2H])([2H])OCC(=O)N1CCc2c(C(=O)N3CC=C(c4cccc(F)c4C(F)(F)F)CC3)n[nH]c2C1 [Compound 8],,70.4 min,19.7 µL/min/mg,6.79 min,204 µL/min/mg,,,,,556 ng·h/mL,199 min,515 ng/mL,30 min
[2H]C([2H])([2H])OCC(=O)N1CCc2c(C(=O)N3CC=C(c4ccc(F)c(F)c4C(F)(F)F)CC3)n[nH]c2C1 [Compound 9],82%,130 min,10.6 µL/min/mg,17.2 min,80.8 µL/min/mg,,,,,1030 ng·h/mL,40 min,1090 ng/mL,30 min
NC(=O)CN1CCc2c(C(=O)N3CC=C(c4ccc(F)c(F)c4C(F)(F)F)CC3)n[nH]c2C1 [Compound 10],72%,> 180 min,< 7.44 µL/min/mg,18.6 min,74.5 µL/min/mg,,,,,1200 ng·h/mL,113 min,468 ng/mL,30 min
CNC(=O)CN1CCc2c(C(=O)N3CC=C(c4ccc(F)c(F)c4C(F)(F)F)CC3)n[nH]c2C1 [Compound 11],,140 min,9.9 µL/min/mg,11.4 min,121 µL/min/mg,,,,,,,,
CN(C)C(=O)CN1CCc2c(C(=O)N3CC=C(c4ccc(F)c(F)c4C(F)(F)F)CC3)n[nH]c2C1 [Compound 12],,126 min,11 µL/min/mg,4.2 min,330 µL/min/mg,,,,,,,,
